Reference: paper PMC4671956, “Exploiting Transient Protein States for the Design of Small-Molecule Stabilizers of Mutant p53” (Structure(London, England:1993), 2015)

What was measured:
[1] = molecular target: T1, p53 Y220C mutant (Homo sapiens, UniProt P04637, M133L/N239Y/N268D/V203A/Y220C); assay: Dissociation constant by nuclear magnetic resonance spectroscopy (NMR); assay type: binding
Method: (§1) Dissociation constants for the binding of ligands to the p53 Y220C mutant were determined by either nuclear magnetic resonance spectroscopy or isothermal calorimetry as described by [Wilcken et al. (2012a)].

[2] = molecular target: T1, p53 Y220C mutant; parameters: method as in Boeckler et al., 2008; conditions: ref Boeckler et al., 2008; cited from earlier work
[3] = molecular target: T1, p53 Y220C mutant; parameters: method as in Boeckler et al., 2008; conditions: ref Boeckler et al., 2008; cited from earlier work; remark: listed apart in the source
[4] = molecular target: T1, p53 Y220C mutant; assay: Dissociation constant by isothermal calorimetry (ITC); assay type: binding
Method: as §1

[5] = tested on: cancer cell lines expressing the Y220C mutant; parameters: method as in Liu et al., 2013; conditions: ref Liu et al., 2013; cited from earlier work
[6] = NMR, p53-Y220C ligand complex, read-out: KD

CCc1cccc2c(C3CCNCC3)c[nH]c12 [Compound 2]
Kd [1, 6]: 470 ± 90 µM

Nc1cc(C(F)(F)F)cc(Br)c1N [Compound 11]
Kd [1, 6]: 4800 µM

CCn1c2ccccc2c2cc(CNC)ccc21 [Compound 1, PhiKan083]
effect on melting temperature of the protein [2]: raises the melting temperature of the protein
effect on rate of aggregation [3]: slows down its rate of aggregation

Nc1ccc(C(F)(F)F)cc1N [Compound 8]
Kd [1, 6]: > 10000 µM

CCc1cc(Br)cc2c(CCN)c(C)[nH]c12 [Compound 6]
Kd [1]: 940 ± 110 µM

c1ccn(-c2oc(C3CC3)nc2-c2nnn[nH]2)c1 [Compound 10]
Kd [1, 6]: > 2000 µM

CN(C)CCn1cc(-c2ccc(F)cc2)c(-n2cccc2)n1 [Compound 7, PhiKan7242]
Kd [1, 6]: 2400 µM

O=C(O)c1cc(I)c(-n2cccc2)c(I)c1O [Compound 9]
Kd ([4]; ITC, p53-Y220C ligand complex): 21 µM
increase in affinity ([4]; compound 9 relative to scaffold 4 without pyrrole): 40 fold
ligand efficiency [LE] ([4]; from KD = 21 μM (ITC)): 0.38 kcal/mol per non-hydrogen atom

O=C(Nc1ccc(Cl)cc1O)C1CCNCC1 [Compound 12]
Kd [1, 6]: 1270 µM

O=C(O)c1cc(I)cc(I)c1O [Compound 4]
ligand efficiency [LE] ([1]; from KD = 820 μM (NMR)): 0.35 kcal/mol per non-hydrogen atom

Cn1cc(-c2ccccc2)c(-n2cccc2)n1 [PhiKan7088]
biological activity in cancer cell lines [5]: biologically active
